Literature values, collected in PMC12776573, “Mechanism of Self-Assembly of the Gonadropin Releasing Hormone Antagonist Teverelix into Amyloid Fibrils” (Molecular Pharmaceutics, 2025).
Square brackets hold non-standard residues; d marks the D form. Peptide text beside a SMILES is read from it. dPhe(4-Cl) = N[C@H](Cc1ccc(Cl)cc1)C(=O)O; d2Nal = N[C@H](Cc1ccc2ccccc2c1)C(=O)O; d(hCit) = NC(=O)NCCCC[C@@H](N)C(=O)O; Lys(iPr) = CC(C)NCCCC[C@H](N)C(=O)O; d3Pal = N[C@H](Cc1cccnc1)C(=O)O

Details: side chain of Tv thought to be deprotonated on fibril formation; not measured here, no reference given
Excerpt: Calculations establish that a single deprotonation event occurs (see the footnote to Table S1). Considering the pK a of all possible protonation sites in Tv, we think that the pyridine side c ...

pKa of the pyridine side chain: 5.22
SMILES: CC(=O)N[C@H](Cc1ccc2ccccc2c1)C(=O)N[C@H](Cc1ccc(Cl)cc1)C(=O)N[C@H](Cc1cccnc1)C(=O)N[C@@H](CO)C(=O)N[C@@H](Cc1ccc(O)cc1)C(=O)N[C@H](CCCCNC(N)=O)C(=O)N[C@@H](CC(C)C)C(=O)N[C@@H](CCCCNC(C)C)C(=O)N1CCC[C@H]1C(=O)N[C@H](C)C(N)=O [Tv, Ac-D-Nal(2)-D-Phe(4Cl)-D-Pal(3)-Ser-Tyr-D-Hcit-Leu-Lys(iPr)-Pro-D-Ala-NH2] (Ac-[d2Nal][dPhe(4-Cl)][d3Pal]SY[d(hCit)]L[Lys(iPr)]P[dA]-NH2)
